Experimental data taken from PubChem BioAssay (NCI).
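Dose response: 5 concentrations. Exposure: 48 h. Format: 96-well plates. Endpoint: linear interpolation; highest concentration if not reached. TGI: total growth inhibition.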

How the values were obtained:
Test in all cases: DTP human tumour cell line panel, 48 h
SN12C renal = tested on: SN12C renal
SK-MEL-2 melanoma = tested on: SK-MEL-2 melanoma
UO-31 renal = tested on: UO-31 renal
DLD-1 colon = tested on: DLD-1 colon
LXFL 529 NSCLC = tested on: LXFL 529 NSCLC
KM20L2 colon = tested on: KM20L2 colon
M19-MEL melanoma = tested on: M19-MEL melanoma
DMS 114 small cell lung = tested on: DMS 114 small cell lung
DMS 273 small cell lung = tested on: DMS 273 small cell lung
SNB-78 CNS = tested on: SNB-78 CNS
HOP-18 NSCLC = tested on: HOP-18 NSCLC
XF 498 CNS = tested on: XF 498 CNS

| SMILES | TGI (SN12C renal) [µM] | TGI (SK-MEL-2 melanoma) [µM] | TGI (UO-31 renal) [µM] | also measured |
| --- | --- | --- | --- | --- |
| Cc1cc(S(=O)(=O)Nc2n[nH]c(N)n2)c(SCC(=O)O)cc1Cl | > 10 | > 10 | > 10 | – |
| OC1C#CCSCC#C/C=C\1 (configuration not stated) | > 100 | > 100 | > 100 | – |
| N#Cc1c(N)n(-c2cccc(C(=O)O)c2)c(=O)c2cc([N+](=O)[O-])ccc12 | > 100 | > 100 | > 100 | – |
| CCOC(=O)NC(Nc1ccc(S(=O)(=O)Nc2nc(C)cc(C)n2)cc1)(C(=O)OCC)C(F)(F)F (configuration not stated) | > 100 | > 100 | > 100 | – |
| Cc1ccc(-n2c(N)c(C#N)c3[nH]nc(N)c3c2=O)cc1 | – | > 100 | > 100 | – |
| Clc1ccc(C2C3COc4ccccc4C3=NN2c2ccccc2)cc1 (configuration not stated) | > 100 | > 100 | > 100 | – |
| O=C(/C=C/c1cc2ccccc2o1)N1CCN(c2ccccn2)CC1 | > 100 | > 100 | > 100 | – |
| Cc1nn(-c2ccccc2)c2c1C(c1ccc(Cl)cc1)NC(=S)N2 (configuration not stated) | 47.5 | 38.6 | 28.8 | – |
| NNC(=O)c1n[nH]nc1C(=O)NN | > 100 | > 100 | 41.8 | – |
| COC(=O)C(Cc1c[nH]c2ccccc12)NP(=O)(O)OCC1OC(n2cc(I)c(=O)[nH]c2=O)CC1O (configuration not stated) | > 100 | – | > 100 | – |
| Nc1nc(SC/C=C/c2ccccc2)c2[nH]cnc2n1 | > 100 | > 100 | > 100 | – |
| CN=C1CC2c3cc(OC)c(OC)cc3CCN2C2=C1C(=O)CC(C)(C)C2 (configuration not stated) | > 100 | > 100 | > 100 | TGI (DLD-1 colon): > 100 µM; TGI (LXFL 529 NSCLC): > 100 µM; TGI (KM20L2 colon): > 100 µM; TGI (M19-MEL melanoma): > 100 µM; TGI (DMS 114 small cell lung): > 100 µM; TGI (DMS 273 small cell lung): > 100 µM; TGI (SNB-78 CNS): > 100 µM |
| O=c1c(/C=C/c2c(O)ccc3ccccc23)nnc2sc(-c3cccc(Br)c3)nn12 | – | > 100 | 69.6 | – |
| C[C@H](CCC(=O)O)[C@H]1CC[C@H]2[C@@H]3CC[C@@H]4C[C@H](O)CC[C@]4(C)[C@H]3C[C@H](O)[C@]12C | > 100 | > 100 | > 100 | – |
| CC(O)C1(CNc2cc(Cl)nc(N)n2)CCC1 (configuration not stated) | > 100 | > 100 | > 100 | – |
| CC1OC(OC2C(O)COC(OC3C(C)OC(OC4C(OC(=O)[C@]56CCC(C)(C)C[C@@H]5C5=CCC7[C@@]8(C)C[C@H](O)[C@H](OC9OC(CO)C(O)C(O)C9O)[C@@](C)(CO)[C@@H]8CC[C@@]7(C)[C@]5(C)CC6)OCC(O)C4O)C(O)C3OC3OCC(O)(CO)C3O)C2O)C(O)C(O)C1O (some centres not stated) | 16.4 | 30.8 | 14.2 | – |
| COc1ccc(C(OCC2OC(n3cc(C)c(=O)[nH]c3=O)CC2n2cc(Cn3cc(Cl)c(=O)[nH]c3=O)nn2)(c2ccccc2)c2ccccc2)cc1 (configuration not stated) | > 100 | > 100 | > 100 | – |
| CN=C(N=Nc1c(O)[nH]c2ccccc12)SCC(=O)c1ccc(Br)cc1 | > 48.7 | > 100 | 3.79 | – |
| CN1C2CCC1CC(=CCOC(c1ccc(F)cc1)c1ccc(F)cc1)C2 | 33.5 | 39.4 | 21.8 | – |
| O=[N+]([O-])c1ccc2c(c1)C1=C(CO2)Cc2ccccc2O1 | 45.2 | > 100 | 28.1 | – |
| COc1ccc(P2(=S)OC(C)(C)C(C)(C)O2)cc1 | > 100 | > 100 | > 100 | – |

| SMILES | TGI (SN12C renal) [µM] | TGI (SK-MEL-2 melanoma) [µM] | TGI (UO-31 renal) [µM] | also measured |
| --- | --- | --- | --- | --- |
| Fc1cc(-c2cc(-c3ccccc3)no2)c(Cl)cc1Cl | > 54.4 | > 40.1 | > 59.3 | – |
| COC(=O)c1cc2ccc(N)nc2[nH]c1=O | > 100 | > 100 | > 100 | – |
| COC(=O)/C=C(\C)CC(O)/C=C(\C)CCC=C(C)C (configuration not stated) | > 100 | 73.7 | > 100 | – |
| O=Cc1[nH]c(=O)[nH]c(=O)c1C(=O)O | > 100 | > 100 | > 100 | – |
| Cn1cc(NC(=O)Nc2cc(C(=O)Nc3cc(C(=O)Nc4ccc(S(=O)(=O)O)c5cc(S(=O)(=O)O)ccc45)n(C)c3)n(C)c2)cc1C(=O)Nc1cc(C(=O)Nc2ccc(S(=O)(=O)O)c3cc(S(=O)(=O)O)ccc23)n(C)c1 | > 100 | – | > 100 | – |
| COc1ccc(-[n+]2nc(S(=O)(=O)O)c(/C=C/c3ccc(N(C)C)cc3)cc2C#N)cc1 | > 100 | > 100 | > 100 | – |
| CN(C)C1(N(C)C)Oc2c(c(=O)n(C)c(=O)n2C)C(c2ccccc2)C1(F)F (configuration not stated) | – | > 100 | > 100 | – |
| COC1(OC)C(N(C)C)=C(Cl)C(=O)/C1=C/C=O | > 100 | – | > 100 | TGI (DLD-1 colon): > 100 µM; TGI (LXFL 529 NSCLC): > 100 µM; TGI (HOP-18 NSCLC): > 100 µM; TGI (KM20L2 colon): > 100 µM; TGI (M19-MEL melanoma): > 100 µM; TGI (DMS 114 small cell lung): > 100 µM; TGI (DMS 273 small cell lung): > 100 µM |
| COC(=O)C1=C(C(=O)NNc2ccccc2)N(c2cccnc2Cl)C(c2ccccc2)=CC1c1ccccc1 (configuration not stated) | > 100 | 76.6 | – | – |
| CCCCNC(=S)Nc1nc(C(=O)NNC(=S)Nc2ccccc2)cs1 | > 100 | > 100 | > 100 | – |
| CCCCCCc1cc2cc(C(=O)Nc3ccccc3)c(=N)oc2cc1O | 6.97 | 14.7 | 12.7 | – |
| O=C(O)[C@@H]1CCS(=O)(=O)N1 | > 100 | > 100 | – | – |
| CC1CCC(=O)C(C(=O)CC2CC(=O)N(C)C(=O)C2)C1 (configuration not stated) | > 100 | > 100 | > 100 | – |
| N#Cc1c2ccccc2cn1-c1ccc(F)cc1 | – | – | 39.6 | TGI (DLD-1 colon): > 100 µM; TGI (LXFL 529 NSCLC): > 100 µM; TGI (KM20L2 colon): > 100 µM; TGI (M19-MEL melanoma): > 100 µM; TGI (DMS 114 small cell lung): > 100 µM; TGI (XF 498 CNS): > 100 µM |
| Oc1[nH]c2ccccc2c1N=NC(=S)Nc1cccc(Cl)c1 | > 100 | 89.6 | > 100 | – |
| CSc1nc(Nc2cccc(C(F)(F)F)c2)c2c(N)nn(C)c2n1 | > 100 | > 100 | > 100 | – |
| C/C=C(/C)C(=O)O[C@@H]1CCN2CC[C@H](COC(=O)/C(=C/C)CO)C12 (some centres not stated) | > 100 | > 100 | > 100 | – |
| N#Cc1c(-c2ccc(Cl)cc2Cl)nc2[nH][nH]c(=S)n2c1=O | > 100 | > 100 | > 100 | – |
| CSc1ncnc2c1ncn2CCC(=O)OC(C)(C)C | > 100 | – | > 100 | – |
| Cn1c(=O)c2c(nc(Cc3ccccc3)n2CC(=O)O)n(C)c1=O | > 100 | > 100 | > 100 | – |
